40 compounds from patent US10940139B2, “Compounds that interact with the Ras superfamily for the treatment of cancers, inflammatory diseases, rasopathies, and fibrotic disease” (Shy Therapeutics LLC, priority 2017, dated 2021) can be followed below.

Test [1] concerns the target KRas G12D mutant protein (Homo sapiens (Human), UniProt P01116, G12D). Description: Ras GTP binding domain inhibition assay (labeled GTP). The following applies: at 20 μM; read-out: KRas G12D % Inh. The procedure: The following method was developed as specific assay for KRas G12D mutant protein.
Buffer-I: • 50 mM Tris, pH 7.5 • 150 mM NaCl (optional) • 1 mM MgCl2 • 1 mM DTT. • KRas G12D mutant protein was expressed as a His-tagged protein. Purified His-KRas G12D protein was diluted in buffer-I to a final concentration of 3-10 μg/ml. • 200 μl of the diluted His-KRas G12D protein was added to a nickel coated 96 well plate and incubated overnight at 4° C. • The next day, wells were washed 3× in 200 μl of Buffer-I. • Then 200 μl of Buffer-I were added to each well in the presence of 1% DMSO. • Tested compounds were added to the protein-coated wells at a concentration of 20 μM, and incubated for 3 hours at room temperature. While performing IC50 measurements a serial dilution of all tested concentrations was prepared.
Then 22 μl of Cy3-GTP or Cy5-GTP was added to each well. The labeled GTP was incubated for 45 min. at room temperature. • Following GTP incubation, wells were washed 3× in Buffer-I, and 200 μl of Buffer-I were added to each well. • Following washes, the amount of bound labeled-GTP was measured with an Eppendorf AF2200 plate reader.

Test [2] has as its target Rho-A (Homo sapiens (Human), UniProt P61586). The test is described as follows: Rho inhibition assay (labeled GTP). The conditions noted are these: read-out: Rho-A % Inh. Format: binding.
In test [3] the target is KRas G12D/Q61H double mutant (Homo sapiens (Human), UniProt P01116, G12D/Q61H). The test is described as follows: Ras GTP binding domain inhibition assay (labeled GTP). The following applies: at 20 μM; read-out: KRas G12D Q61H % Inh. The essentials:
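His-tagged KRas protein (3-10 μg/ml) was captured overnight at 4° C on nickel-coated wells in 50 mM Tris pH 7.5, 1 mM MgCl2, 1 mM DTT. Bound labeled GTP was read by fluorescence after washing.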

For test [4], the target named is Rac-1 (Homo sapiens (Human), UniProt P63000). The test is described as follows: Rac inhibition assay (labeled GTP). The conditions noted are these: read-out: Rac-1 % Inh. Type of test: binding.

Chain of KRas G12D mutant protein (P01116-2 other isoform, or with tags, fused parts or gaps G12D): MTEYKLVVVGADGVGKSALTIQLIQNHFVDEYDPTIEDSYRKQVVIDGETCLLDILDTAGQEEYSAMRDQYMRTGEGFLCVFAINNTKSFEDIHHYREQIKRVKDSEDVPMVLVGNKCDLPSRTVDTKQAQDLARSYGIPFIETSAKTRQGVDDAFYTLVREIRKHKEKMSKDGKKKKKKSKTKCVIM
Chain of Rho-A (P61586 whole entry, the tested form may be a part): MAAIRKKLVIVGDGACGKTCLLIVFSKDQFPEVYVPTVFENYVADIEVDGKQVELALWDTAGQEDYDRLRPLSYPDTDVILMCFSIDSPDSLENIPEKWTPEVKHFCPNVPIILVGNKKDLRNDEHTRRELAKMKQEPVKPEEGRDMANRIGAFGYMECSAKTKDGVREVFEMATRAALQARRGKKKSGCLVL
Chain of KRas G12D/Q61H double mutant (P01116-2 other isoform, or with tags, fused parts or gaps G12D/Q61H): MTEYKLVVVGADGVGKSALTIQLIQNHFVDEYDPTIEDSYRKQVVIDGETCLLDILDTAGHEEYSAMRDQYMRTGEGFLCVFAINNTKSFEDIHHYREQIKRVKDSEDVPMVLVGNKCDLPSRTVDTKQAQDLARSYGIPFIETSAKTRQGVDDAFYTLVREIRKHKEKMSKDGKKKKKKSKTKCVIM

`COCc1ccc(-c2csc3c(O)nc(-c4ccccn4)nc23)cc1F` [drawing 3718]: the results for the inhibition at 20 µM in test [1], in test [2] and in test [3] were 51 to 75%, 76 to 100% and 51 to 75%, respectively.
With `COc1ccc(N2CCN(C(=O)c3csc4c(O)nc(-c5ccccn5)nc34)CC2)c(OC)c1` [drawing 3648], the inhibition at 20 µM in test [2] was 51 to 75%; in test [3], 25 to 50%; in test [4] it was 76 to 100%.
The corresponding values for `O=C(c1csc2c(O)nc(-c3ccccn3)nc12)N1CCN(Cc2ccccc2)CC1` [drawing 3651] are 76 to 100%, 25 to 50% and 51 to 75%.
The corresponding values for `COCCN(CCOC)c1nc(-c2ccccn2)nc2scc(C(=O)NCCc3ccc(OC)nc3)c12` [drawing 3681] are 51 to 75%, 1 to 25% and 51 to 75%.
For `CCC(C)c1csc2c(OC)nc(-c3ccccn3)nc12` (stereo not drawn) [drawing 3790], the inhibition at 20 µM in test [1] was 25 to 50%; in test [2], 51 to 75%; in test [3], 51 to 75%.
With `Nc1nc(-c2ccccn2)nc2c(Br)csc12` [drawing 3764], the inhibition at 20 µM in test [2] fell in the range of 51 to 75%; in test [3], 25 to 50%; in test [4] it was 51 to 75%.
For `CC(C)c1nn(C)cc1-c1csc2c(O)nc(-c3ccccn3)nc12` [drawing 3820], the inhibition at 20 µM in test [2], in test [3] and in test [4] was 51 to 75% throughout.
With `COC(=O)c1csc2nc(-c3ccccn3)nc(N)c12` [drawing 3767], the values for the inhibition at 20 µM in test [2], in test [3] and in test [4] were 51 to 75%, 25 to 50% and 51 to 75%, respectively.
Regarding `Cc1ccc(-c2cc3nc(-c4ccccn4)nc(O)c3s2)cc1` [drawing 3873], the inhibition at 20 µM in test [2] is 0%; in test [3], 0%; in test [4] it was 1 to 25%.
With `CC(C)COc1ccc(-c2csc3c(O)nc(-c4ccccn4)nc23)cn1` [drawing 3749], the inhibition at 20 µM in test [1], in test [2] and in test [3] was 51 to 75% throughout.
As for `O=C(NCCc1cncnc1)c1csc2nc(-c3ccccn3)nc(N3CCOCC3)c12` [drawing 3673], the inhibition at 20 µM in test [2] is 51 to 75%; in test [3] it was 1 to 25%; in test [4], 51 to 75%.
Consider `COC(=O)c1c(C)sc2c(N)nc(-c3ccccn3)nc12` [drawing 3818], for which the inhibition at 20 µM in test [2] lay in the range of 76 to 100%; in test [3] it was 51 to 75%; in test [4] it was 76 to 100%.
Turning to `COc1ccccc1C1CN(C(=O)c2csc3c(O)nc(-c4ccccn4)nc23)CCN1` (stereo not drawn) [drawing 3661], the inhibition at 20 µM in test [2] lay within 76 to 100%; in test [3] it was 25 to 50%; in test [4], 1 to 25%.
Take `Cc1cnc(-c2ccccn2)nc1NC(=O)C(C)c1ccc(C#N)cc1` (stereo not drawn) [drawing 3686]: the inhibition at 20 µM is 51 to 75% in test [2], 1 to 25% in test [3] and 76 to 100% in test [4].
The corresponding values for `COc1ccnc(-c2nc(O)c3c(Br)csc3n2)c1` [drawing 3632] are 25 to 50%, 25 to 50% and 25 to 50%.
Regarding `CC(C)(C(=O)Nc1nc(-c2ccccn2)nc2sccc12)c1ccc(C#N)cc1` [drawing 3641], the inhibition at 20 µM in test [2] is 51 to 75%; in test [3], 0%; in test [4] it was 76 to 100%.
The corresponding values for `COc1cc(C)c(-c2csc3c(O)nc(-c4ccccn4)nc23)cc1C` [drawing 3741] are 25 to 50%, 25 to 50% and 51 to 75%.
The corresponding values for `N#Cc1ccc(COCC(=O)Nc2ccnc(-c3ccccn3)n2)cc1` [drawing 3685] are 51 to 75%, 0% and 76 to 100%.
The corresponding values for `Nc1nc(-c2ccccn2)nc2c(-c3ccccc3Cl)csc12` [drawing 3707] are 25 to 50%, 1 to 25% and 25 to 50%.
As for `COc1nc(-c2ccccn2)nc2c(C3CCCCC3)csc12` [drawing 3798], the inhibition at 20 µM in test [2], in test [3] and in test [4] was 1 to 25% throughout.
For the compound `NC(=O)C1CCCN1C(=O)c1cccc(-c2cc3nc(N)nc(O)c3s2)c1` (stereo not drawn) [drawing 3862], the inhibition at 20 µM in test [2], in test [3] and in test [4] was 0% in each case.
With `Cn1cc(C2CN(C(=O)c3csc4c(O)nc(-c5ccccn5)nc34)CCN2)cn1` (stereo not drawn) [drawing 3666], the values for the inhibition at 20 µM in test [2], in test [3] and in test [4] were 76 to 100%, 1 to 25% and 76 to 100%, respectively.
Regarding `N#Cc1cccc(CCNC(=O)c2csc3nc(-c4ccccn4)nc(N4CCOCC4)c23)c1` [drawing 3676], the results for the inhibition at 20 µM in test [2], in test [3] and in test [4] were 51 to 75%, 1 to 25% and 51 to 75%, respectively.
In the case of `Cc1sc2c(O)nc(-c3ccccn3)nc2c1C(=O)N1CCN(Cc2cccc(O)c2)CC1` [drawing 3829], the results for the inhibition at 20 µM in test [1] and in test [3] were 25 to 50% and 51 to 75%, respectively.
Consider `Cc1sc2c(O)nc(-c3ccccn3)nc2c1Br` [drawing 3840], for which the inhibition at 20 µM in test [2] is 51 to 75%; in test [3] it was 25 to 50%; in test [4], 25 to 50%.
In the case of `COCCCCNC(=O)c1csc2nc(-c3ccccn3)nc(N(CCOC)CCOC)c12` [drawing 3682], the inhibition at 20 µM in test [2] was 51 to 75%; in test [3], 0%; in test [4], 76 to 100%.
The corresponding values for `COC(=O)c1c(C)sc2c(O)nc(-c3ccccn3)nc12` [drawing 3792] are 76 to 100%, 51 to 75% and 76 to 100%.
The corresponding values for `Oc1nc(-c2ccccn2)nc2c(-c3ccc(Cl)c(Cl)c3)csc12` [drawing 3781] are 51 to 75%, 25 to 50% and 25 to 50%.
With `Oc1nc(-c2ccccn2)nc2c(-c3ccccc3C(F)F)csc12` [drawing 3755], the inhibition at 20 µM in test [1] and in test [3] was 51 to 75% throughout.
`Oc1nc(-c2ccccn2)nc2c(-c3cc(C(F)(F)F)ccc3F)csc12` [drawing 3783]: the inhibition at 20 µM in test [3] is 1 to 25%; in test [4] it was 25 to 50%.
For the compound `CN(C)CCOc1cccc(-c2csc3c(O)nc(-c4ccccn4)nc23)c1` [drawing 3811], the inhibition at 20 µM in test [1] and in test [3] was 76 to 100% in each case.
On to `Oc1nc(-c2ccccn2)nc2c(C3CC3)csc12` [drawing 3836], for which the inhibition at 20 µM fell in the range of 51 to 75% in test [1], 25 to 50% in test [3] and 51 to 75% in test [4].
With `Oc1nc(-c2ccccn2)nc2c(-c3ccc4c(c3)CCCO4)csc12` [drawing 3774], the inhibition at 20 µM in test [1] lay in the range of 51 to 75%; in test [3] it was 25 to 50%; in test [4] it was 25 to 50%.
Take `O=C(c1csc2c(O)nc(-c3ccccn3)nc12)N1CCNC(c2cn[nH]c2)C1` (stereo not drawn) [drawing 3730]: the inhibition at 20 µM in test [1] is 25 to 50%; in test [2], 76 to 100%; in test [3], 51 to 75%.
As to `COCCNc1nc(-c2nccn2C)nc2sc(-c3ccccc3)c(-c3ccccc3)c12` [drawing 3853], the results for the inhibition at 20 µM in test [1] and in test [3] were 76 to 100% and 51 to 75%, respectively.
In the case of `Cc1c(C(=O)N2CCN(c3ccccc3)CC2)sc2c(O)nc(-c3ccccn3)nc12` [drawing 3802], the inhibition at 20 µM in test [3] and in test [4] was 51 to 75% throughout.
On to `CN(C)Cc1ccc(-c2csc3c(O)nc(-c4ccccn4)nc23)cc1F` [drawing 3717], for which the inhibition at 20 µM in test [1] and in test [3] was 76 to 100% throughout.
In the case of `Oc1nc(-c2ccccn2)nc2c(-c3cncc(C(F)(F)F)c3)csc12` [drawing 3784], the inhibition at 20 µM lay in the range of 25 to 50% in test [2] and 1 to 25% in test [3].
In the case of `COc1cc(-c2csc3c(O)nc(-c4ccccn4)nc23)cnc1C(F)(F)F` [drawing 3756], the inhibition at 20 µM in test [1], in test [3] and in test [4] was 51 to 75% in each case.
For `O=C(c1csc2c(O)nc(-c3ccccn3)nc12)N1CCNC(c2ccc(O)cc2)C1` (stereo not drawn) [drawing 3697], the inhibition at 20 µM was in the range of 51 to 75% in test [1] and 76 to 100% in test [3].
